In EP0043274A2, “Antithrombotic treatment” (priority 1980, dated 1982):
Values joined by “and” are separate entries in the source; they are usually repeats but may differ in a detail not shown here. Equal entries are not always repeated. Where two headings read alike, the source gives them in different places.

What was measured:
human plasma [1] = type: biochemical
human plasma [2] = type: biochemical; remark: listed apart in the source
F VII = biological target: T1, F VII (Homo sapiens, UniProt P08709); test: Coagulation factor assay (Biggs): Factor VII; type: biochemical; conditions: for F VII (%): U.S.P. grade, control 73
T1 construct: from tissue; host or cells: human plasma
T1 sequence (P08709 61-466): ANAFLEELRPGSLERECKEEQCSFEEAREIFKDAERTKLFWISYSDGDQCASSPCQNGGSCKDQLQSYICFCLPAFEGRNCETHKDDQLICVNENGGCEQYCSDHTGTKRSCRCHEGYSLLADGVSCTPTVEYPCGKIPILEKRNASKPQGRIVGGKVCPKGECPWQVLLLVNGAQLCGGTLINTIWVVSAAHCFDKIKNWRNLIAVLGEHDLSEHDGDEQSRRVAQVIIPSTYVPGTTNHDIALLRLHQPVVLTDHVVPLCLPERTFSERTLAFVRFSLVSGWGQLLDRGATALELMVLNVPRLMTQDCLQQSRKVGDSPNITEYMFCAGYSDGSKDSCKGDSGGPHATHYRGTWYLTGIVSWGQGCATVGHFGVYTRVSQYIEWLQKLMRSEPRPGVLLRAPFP
Procedure: (§1) The effect of U.S.P. grade sodium bisulfite on blood coagulation factors is evaluated by standard procedures (Biggs) and the results are shown in Table III below.
(§2) References for PT, PTT, and assays of all the coagulation factors can be found in a standard textbook, entitled "Human Blood Coagulation, Haemostasis and Thrombosis", edited by Rosemary Biggs, published by Blackwell Scientific Publications, Oxford, England (2nd edition), pages 670-705, 1976.

F IX = biological target: T2, F IX (Homo sapiens, UniProt P00740); test: Coagulation factor assay (Biggs): Factor IX; type: biochemical; conditions: for F IX (%): U.S.P. grade, control 66
T2 construct: from tissue; host or cells: human plasma
Procedure: as §1, §2

F X = biological target: T3, F X (Homo sapiens, UniProt P00742); test: Coagulation factor assay (Biggs): Factor X; type: biochemical; conditions: for F X (%): U.S.P. grade, control 78
T3 construct: from tissue; host or cells: human plasma
Procedure: as §1, §2

F XI = biological target: T4, F XI (Homo sapiens, UniProt P03951); test: Coagulation factor assay (Biggs): Factor XI; type: biochemical; conditions: for F XI (%): U.S.P. grade, control 117
T4 construct: from tissue; host or cells: human plasma
Procedure: as §1, §2

F XII = biological target: T5, F XII (Homo sapiens, UniProt P00748); test: Coagulation factor assay (Biggs): Factor XII; type: biochemical; conditions: for F XII (%): U.S.P. grade, control 86
T5 construct: from tissue; host or cells: human plasma
T5 sequence (P00748 20-615): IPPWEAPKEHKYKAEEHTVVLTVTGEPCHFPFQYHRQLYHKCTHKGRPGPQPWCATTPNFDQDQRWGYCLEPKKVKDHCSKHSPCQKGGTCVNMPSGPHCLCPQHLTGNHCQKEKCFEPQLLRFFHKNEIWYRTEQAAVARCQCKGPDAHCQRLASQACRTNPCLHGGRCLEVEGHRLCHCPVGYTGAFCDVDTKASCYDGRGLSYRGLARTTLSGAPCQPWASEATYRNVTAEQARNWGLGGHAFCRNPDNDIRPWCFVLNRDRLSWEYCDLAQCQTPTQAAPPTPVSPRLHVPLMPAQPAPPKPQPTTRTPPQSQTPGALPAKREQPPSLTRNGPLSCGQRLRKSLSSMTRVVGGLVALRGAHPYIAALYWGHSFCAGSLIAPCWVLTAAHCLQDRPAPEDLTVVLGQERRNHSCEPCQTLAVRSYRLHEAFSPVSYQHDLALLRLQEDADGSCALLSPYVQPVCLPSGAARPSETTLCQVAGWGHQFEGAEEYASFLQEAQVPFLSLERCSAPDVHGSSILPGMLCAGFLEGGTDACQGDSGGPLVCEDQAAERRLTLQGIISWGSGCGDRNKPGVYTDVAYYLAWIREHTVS
Procedure: as §1, §2

rabbit plasma = test: Blood coagulation tests (PT, PTT, coagulation factors) in vitro; type: biochemical
Source text: The alkali metalbisulfites, sodium and potassium, and ammonium bisulfite are found to prolong PT and PTT in a dose-related fashion.
The Solution I is found to prolong PT and PTT in a dose related fashion. […] The agent is active in inhibiting various coagulation factors, including factors VII, IX, X, XI, and XII.

[3] = tested on: thrombus formation in the jugular vein; test: I 125 fibrinogen technique, damaged jugular vein (venous thrombosis), continuous infusion; type: in vivo, rabbits
[4] = continuous infusion for five hours

T2 sequence (P00740 47-461): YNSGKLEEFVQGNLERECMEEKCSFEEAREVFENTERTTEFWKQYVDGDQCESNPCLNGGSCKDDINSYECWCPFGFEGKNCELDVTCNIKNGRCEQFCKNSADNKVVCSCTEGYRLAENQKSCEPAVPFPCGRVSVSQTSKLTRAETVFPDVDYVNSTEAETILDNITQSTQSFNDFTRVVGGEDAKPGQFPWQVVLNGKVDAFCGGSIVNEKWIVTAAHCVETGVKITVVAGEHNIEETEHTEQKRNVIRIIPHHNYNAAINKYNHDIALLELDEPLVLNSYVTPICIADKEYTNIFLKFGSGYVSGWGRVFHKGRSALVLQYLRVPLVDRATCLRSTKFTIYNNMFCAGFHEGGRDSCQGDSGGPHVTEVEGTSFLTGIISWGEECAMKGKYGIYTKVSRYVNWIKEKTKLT
T4 sequence (P03951 19-625): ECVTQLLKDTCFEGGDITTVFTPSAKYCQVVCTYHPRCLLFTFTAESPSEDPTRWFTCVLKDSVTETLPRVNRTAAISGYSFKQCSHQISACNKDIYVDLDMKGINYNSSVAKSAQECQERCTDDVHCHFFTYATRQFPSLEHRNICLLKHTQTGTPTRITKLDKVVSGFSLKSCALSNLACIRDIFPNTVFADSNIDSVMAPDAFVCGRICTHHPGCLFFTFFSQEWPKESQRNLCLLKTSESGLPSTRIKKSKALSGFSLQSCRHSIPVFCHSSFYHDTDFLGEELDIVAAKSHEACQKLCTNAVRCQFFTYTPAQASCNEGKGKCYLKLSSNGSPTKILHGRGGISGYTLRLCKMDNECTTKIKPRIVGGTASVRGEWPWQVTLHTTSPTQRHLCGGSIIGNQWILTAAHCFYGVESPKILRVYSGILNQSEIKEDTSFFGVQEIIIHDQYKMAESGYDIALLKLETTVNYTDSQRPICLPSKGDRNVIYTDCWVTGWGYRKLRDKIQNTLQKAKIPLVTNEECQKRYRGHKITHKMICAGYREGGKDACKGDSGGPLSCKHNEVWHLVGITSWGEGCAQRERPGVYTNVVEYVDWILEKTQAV
T3 sequence (P00742 41-488): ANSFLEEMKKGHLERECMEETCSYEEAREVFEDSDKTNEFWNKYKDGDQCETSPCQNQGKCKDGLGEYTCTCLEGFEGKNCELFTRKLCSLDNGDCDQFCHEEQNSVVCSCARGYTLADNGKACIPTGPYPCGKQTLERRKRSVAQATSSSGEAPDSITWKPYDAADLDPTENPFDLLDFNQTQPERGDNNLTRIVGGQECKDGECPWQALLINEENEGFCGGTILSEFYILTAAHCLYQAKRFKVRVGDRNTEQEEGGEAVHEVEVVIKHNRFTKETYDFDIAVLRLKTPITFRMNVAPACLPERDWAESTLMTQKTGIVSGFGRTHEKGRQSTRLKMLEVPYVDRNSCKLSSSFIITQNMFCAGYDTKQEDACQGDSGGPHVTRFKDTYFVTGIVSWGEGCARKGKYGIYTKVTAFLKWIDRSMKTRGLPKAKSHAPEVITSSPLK

## Sodium bisulfite
Human plasma [1]
  PT: 22.42 s
  PT(seconds) Exp. 1 A: 25.5 s and 22.1 s
  PT(seconds) Exp. 2 A: 23.2 s
Human plasma [1]; 0.01 mg/ml, U.S.P. grade, control 34.67
  PT: 33.37 s
Human plasma [1]; 0.05 mg/ml, U.S.P. grade, control 34.67
  PT: 34.00 s
Human plasma [1]; 0.1 mg/ml, U.S.P. grade, control 34.67
  PT: 34.85 s
Human plasma [1]; 0.5 mg/ml, U.S.P. grade, control 34.67
  PT: 42.73 s
Human plasma [1]; 1.0 mg/ml, U.S.P. grade, control 34.67
  PT: 85.33 s
Human plasma [1]; 5.0 mg/ml, U.S.P. grade, control 34.67
  PT: >150 s
Human plasma [1]; coded agents 0.5mg/ml, […], control 12.92
  PT: 23.06 s
Human plasma [1]; in vitro, 0.5 mg/ml
  PT (effect in words): significantly prolong
Human plasma [2]
  PTT(seconds) Exp. 1 A: 128.2 s
Human plasma [2]; 0.01 mg/ml, U.S.P. grade, control 12.20
  PTT: 12.33 s
Human plasma [2]; 0.05 mg/ml, U.S.P. grade, control 12.20
  PTT: 12.43 s
Human plasma [2]; 0.1 mg/ml, U.S.P. grade, control 12.20
  PTT: 12.85 s
Human plasma [2]; 0.5 mg/ml, U.S.P. grade, control 12.20
  PTT: 15.43 s
Human plasma [2]; 0.5 mg/ml, two different days, control 42.6 / 42.10
  PTT: 120.35 s
Human plasma [2]; 1.0 mg/ml, U.S.P. grade, control 12.20
  PTT: 22.63 s
Human plasma [2]; 5.0 mg/ml, U.S.P. grade, control 12.20
  PTT: >150 s
Human plasma [2]; Active Agent 0.5/ml, test sequences A and B, control 50.5 (A), 44.5 (B)
  PTT(seconds) Exp. 2 A: 162.6 s and 121.9 s
Human plasma [2]; coded agents 0.5mg/ml, […], control 43.38
  PTT: 114.80 s
Human plasma [2]; in vitro, 0.5 mg/ml
  PTT (effect in words): significantly prolong
F VII; 0.01 mg/ml
  F VII (%): 67%
F VII; 0.05 mg/ml
  F VII (%): 57%
F VII; 0.1 mg/ml
  F VII (%): 51%
F VII; 0.5 mg per ml
  effect on Factor VII: significant inhibitory effect
F VII; 0.5 mg/ml
  F VII (%): 23%
F VII; 1.0 mg/ml
  F VII (%): 8%
F VII; 5.0 mg/ml
  F VII (%): 1%
F IX; 0.01 mg/ml
  F IX (%): 60%
F IX; 0.05 mg/ml
  F IX (%): 52%
F IX; 0.1 mg/ml
  F IX (%): 56%
F IX; 0.5 mg per ml
  effect on Factor IX: significant inhibitory effect
F IX; 0.5 mg/ml
  F IX (%): 4%
F IX; 1.0 mg/ml
  F IX (%): 3%
F IX; 5.0 mg/ml
  F IX (%): <1%
F X; 0.01 mg/ml
  F X (%): 73%
F X; 0.05 mg/ml
  F X (%): 68%
F X; 0.1 mg/ml
  F X (%): 66%
F X; 0.5 mg per ml
  effect on Factor X: significant inhibitory effect
F X; 0.5 mg/ml
  F X (%): 31%
F X; 1.0 mg/ml
  F X (%): 11%
F X; 5.0 mg/ml
  F X (%): 3%
F XI; 0.01 mg/ml
  F XI (%): 98%
F XI; 0.05 mg/ml
  F XI (%): 81%
F XI; 0.1 mg/ml
  F XI (%): 58%
F XI; 0.5 mg per ml
  effect on Factor XI: significant inhibitory effect
F XI; 0.5 mg/ml
  F XI (%): 27%
F XI; 1.0 mg/ml
  F XI (%): 4%
F XI; 5.0 mg/ml
  F XI (%): <1%
F XII; 0.01 mg/ml
  F XII (%): 94%
F XII; 0.05 mg/ml
  F XII (%): 87%
F XII; 0.1 mg/ml
  F XII (%): 79%
F XII; 0.5 mg per ml
  effect on Factor XII: significant inhibitory effect
F XII; 0.5 mg/ml
  F XII (%): 17%
F XII; 1.0 mg/ml
  F XII (%): 3%
F XII; 5.0 mg/ml
  F XII (%): <1%
Rabbit plasma; rabbit plasma in vitro, 0.5 mg/ml
  PT and PTT (effect in words): significantly prolong
Rabbit plasma; rabbit plasma, compared with human plasma
  blood coagulation factors: not as sensitive
[3]; continuous infusion
  mortality of infused rabbits: died
[3]; [4]
  radioactivity (I 125 fibrinogen) in damaged jugular vein of saline control rabbit relative to treated rabbit: seven times
  thrombus formation in the jugular vein (conclusion in words): definite positive effect of decreasing thrombus formation
